Test results taken from patent US10308986B2, “Cancer diagnosis, treatment selection and treatment” (CHILDREN'S MEDICAL CENTER CORPORATION, priority 2013, dated 2019).
Where two headings read alike, the source gives them in different places.

Columns and labels:
[1] = test system: panel of breast cancer cell lines; test: Colony formation assay, IC50, panel of breast cancer cell lines; format: cell-based; conditions: for association of pattern of sensitivity across cell line panel with relative expression of BRCA1/BLM and BLM/Actin: panel of breast cancer cell lines
Procedure: Three cell lines (BT549, HCC1143, and HCC38) are normal genotype for BRCA1 and have high BLM/Actin and low ratio of BRCA1/BLM. Two cell lines (MDA231 and MDA453) are also normal genotype for BRCA1 but have relatively higher expression of BRCA1/BLM and lower BLM/actin. HCC1937 and MDA436 have homozygous mutation in BRCA1 and undetectable BRCA1/BLM, and higher expression of BLM/Actin.
A panel of cell lines was evaluated for sensitivity to various treatments as indicated by colony formation assay and calculation of IC50 values.

[2] = test system: BT549 breast cancer cells; test: Colony formation assay, IC50, BT549 cells treated with siRNAs to BLM or FANCI; format: cell-based; conditions: versus scramble control
Procedure: We further treated BT549 breast cancer cells, with inherent high levels of BLM and FANCI were treated with gene-specific siRNAs to BLM or FANCI or with a scramble control.

[3] = test system: triple negative breast cancer; conditions: TNBC patients, neoadjuvant cisplatin in combination with bevacizumab; 44 patients completed therapy (Ryan et al., JCO 2009); cited from earlier work
[4] = test system: triple negative breast cancer; conditions: 28 TNBC patients, neoadjuvant cisplatin as single agent (Silver et al., JCO 2010); cited from earlier work
[5] = test system: MDA231 breast cancer cells; test: Colony formation assay, IC50 for cisplatin, MDA231 cells with BLM overexpression; format: cell-based
Procedure: These cells were used in experiments to assess the effect of increasing the expression of BLM. A lentivirus expression vector for HA-tagged BLM cDNA or a control vector was transfected into MDA231 cells. BLM expression was assessed by Western blot analysis for endogenous BLM or for the HA-tag in cells treated with control vector, BLM cDNA, BLM cDNA and a small molecule inhibitor of BLM helicase (BLMi), or BLM cDNA and BLM siRNA.
IC50 for cisplatin was determined by colony formation assay in MDA231 breast cancer cells treated with control vector, BLM cDNA vector, BLM cDNA plus the BLM small molecule inhibitor, and BLM cDNA plus BLM siRNA. […] Consistent with the other findings, this effect was reversed by treatment with the BLM helicase inhibitor and by siRNA knockdown of BLM.

[6] = test system: H2AX and 53BP1 foci; test: Immunofluorescence assay for markers of DNA damage (H2Ax-p and 53BP1-p) in MDA231 cells; format: cell-based; conditions: cisplatin after 4 hours, compared with no cisplatin treatment
Procedure: We also performed an immunofluorescence assay for markers of DNA damage (H2Ax-p and 53BP1-p) in MDA231 cells treated with control vector, BLM cDNA, BLM cDNA+BLM inhibitor, or BLM cDNA+BLM siRNA. Overexpression of BLM results in increased H2AX and 53BP1 foci in the absence of any cisplatin treatment indicating spontaneous DNA damage. This effect is even greater in cells treated with cisplatin after 4 hours. The quantitation of foci is shown in the lower bar graphs. The addition of a small molecule BLM helicase inhibitor (Bi) or siRNA to BLM (si) blocks the effect of BLM overexpression on DNA damage foci.

[7] = two BRCA1 mutated cell lines (HCC1937, MDA436) and three cell lines with low BRCA1/BLM and high BLM/actin (BT549, HCC1143, HCC38)
[8] = two cell lines with low BLM and high BRCA1/BLM (MDA231, MDA453)

Row | Compound | association of pattern of sensitivity across cell line panel with relative expression of BRCA1/BLM and BLM/Actin [1] | sensitivity by colony formation assay (IC50) [1, 7] | sensitivity by colony formation assay (IC50) [1, 8] | effect of siRNA knockdown of either BLM or FANCI on IC50 [2] | patients who achieved at least 90% reduction in tumor size [3] [%] | patients who achieved at least 90% reduction in tumor size [4] [%] | sensitivity of MDA231 cells ([5]; MDA231 cells with low levels of BLM) | effect of overexpression of BLM on IC50 for cisplatin ([5]; MDA231 cells, BLM cDNA vector versus control vector) | H2AX and 53BP1 foci in BLM overexpressing cells [6]
1 | O=C(c1cc(Cc2n[nH]c(=O)c3ccccc23)ccc1F)N1CCN(C(=O)C2CC2)CC1 [Olaparib] | associated | greater sensitivity | relatively resistant |  |  |  |  |  | 
2 | CC(=O)O[C@H]1C(=O)[C@@]2(C)[C@H]([C@H](OC(=O)c3ccccc3)[C@]3(O)C[C@H](OC(=O)[C@H](O)[C@@H](NC(=O)c4ccccc4)c4ccccc4)C(C)=C1C3(C)C)[C@]1(OC(C)=O)CO[C@@H]1C[C@@H]2O [Paclitaxel] | no apparent association |  |  | no significant effect |  |  |  |  | 
3 | N.N.[Cl][Pt][Cl] [cisplatin, cis-diamminedichloroplatinum] | associated | greater sensitivity | relatively resistant | increased IC50 (greater resistance) | 39 | 36 | relative resistance | decrease in the IC50 (greater sensitivity) | even greater
